Measurements published in patent US11013673B2, “Cosmetic compositions containing quinones and their topical use on skin and hair” (Repairogen Corp, priority 2016, dated 2021).
Each block holds one compound with its values, some of them ahead of it.

Columns and labels:
CUL4A [1] = target: CUL4A (Homo sapiens, UniProt Q13619); assay: BPB-CUL4A AlphaLISA assay (cell free CUL4 inhibition assay); format: biochemical
Method: (§1) A BPB-CUL4A AlphaLISA assay was performed using the 54 compounds to determine their CUL4A inhibitory properties in vitro. Next, these 54 leads were tested for their cell-based inhibitory activity against CUL4A. A first cell-based assay involved the inhibition of DNA damage-binding protein 2 (DDB2) degradation in mouse embryonic fibroblast (MEF) cells in vitro. To determine the specificity of the compounds, another cell-based assay was performed to determine the inhibition of IKBa degradation in HeLa cells in vitro. Preferably, the compounds show high DDB2 inhibition and less inhibition of IKBa degradation. IkBa is a target of […], and this assay provides insight into the specificity of the compounds. These tests led to the selection of three active compounds that passed inhibition and selectivity thresholds and, thus, were suitable for use in cosmetic compositions. These were thymoquinone, lapachol and myrtucommulone C.
The Table below reports the ability of compounds to disrupt CUL4A activity in vitro (in a cell free CUL4 inhibition assay) ascertained from the BPB-CUL4A AlphaLISA assay. Activity above 30% was set to distinguish true hits from false positives.

human fibroblasts = assay: microarray analysis of differential gene expression in fibroblasts; format: cell-based
[2] = tested on: human epidermal keratinocytes; assay: microarray analysis of differential gene expression in keratinocytes; conditions: for number of genes downregulated / number of genes upregulated: 24 h
Method: (§2) Normal primary adult human keratinocytes derived from a donor were purchased from PromoCell (Heidelberg, Germany) and cultured in keratinocytes growth medium (Epilife+EDGS, Thermo Fisher Scientific, NY, USA). Keratinocytes cultures were maintained at 37° C. with 5% CO2 and ˜95% humidity.
Normal primary human keratinocytes were seeded in 6-well plates and incubated for 24 h. Cells were then washed in PBS (Thermo Fisher Scientific) and reincubated for 24 more hours in the presence of RGN1518 and RGN1538 (each at two different concentrations), vehicle control, or positive control. Following treatment, the cells were washed with PBS, collected and stored frozen at −80° C. before RNA extraction.
RNA was extracted using a Qiagen RNeasy kit (Qiagen, CA, USA) according to manufacturer's protocol.
18 vials containing RNA isolated from human epidermal keratinocytes and 18 vials containing RNA isolated from human fibroblasts were shipped to Thermo Fisher Scientific, Advanced BioMedical Laboratories (Cinnaminson, N.J.) on dry ice for Affymetrix Human Clariom D array processing.
The differential gene expression was obtained using a threshold of 0.05 for statistical significance (p-value) and a log fold change of expression with absolute value of at least 1. Gene expression was further analysed using Differential Expression Analysis and Pathway Analysis iPathwayGuide) by Advaita Bioinformatics Services (Plymouth, Mich.) in the context of pathways obtained from the Kyoto Encyclopedia of Genes and Genomes (KEGG) database (Release 84.0+/10-26, October 17) (Kanehisa et al., 2000; Kanehisa et al., 2002), gene ontologies from the Gene Ontology Consortium database (2017 Nov. 6) (Ashburner et al., 2000; Gene Ontology Consortium, 2001), miRNAs from the miRBase (Release 21) and […] (Targetscan version:Mouse:7.1, Human:7.1) databases (Agarwal et al., 2015; Nam et al., 2014; Griffiths-Jones et al., 2008; Kozomara and Griffiths-Jones, 2014; Friedman et al., 2009; Grimson et al., 2007), and diseases from the KEGG database (Release 84.0+/10-26, October 17) (Kanehisa et al., 2000; Kanehisa et al., 2002). All references are available in the reports for bioinformatics analysis of differential gene expression provided by Advaita Bioinformatics Services at the following link.

CUL4A [3] = target: T1, CUL4A (Mus musculus, UniProt Q3TCH7); assay: cell-based assay, inhibition of DDB2 degradation in MEF cells after UV; conditions: DDB2 remaining after UV treatment over baseline compared to DMSO control
T1 construct: endogenous in cells; host or cells: mouse embryonic fibroblast (MEF) cells
Method: as §1
In this cell-based assay, the % is DDB2 ([…]) remaining after UV treatment over baseline compared to a control group. In the DMSO control group, the DDB2 remaining % was between 20-30%.

[4] = tested on: primary human keratinocytes; assay: cytotoxicity assay (Cell Titer96 Aqueous One) on keratinocytes; format: cell-based; conditions: 24 h
Method: as §2
(§3) Cytotoxicity was evaluated using the Cell Titer96 Aqueous One (Promega, Wis., USA) basic test according to manufacturer's instructions. Cells were seeded at a density of 10,000 cells/well in a 96-well plate and cultured overnight. Treatments with seven doses of compounds were carried out for 24 hours, in triplicates. Colorimetric analysis was performed using an absorbance of 490 nm. Inhibition of viability of more than 20% of the control values was considered cytotoxic.
The cytotoxicity assay on primary human keratinocytes from adult donor was performed after 24 h of culture in the presence of different concentrations of each compound, as indicated in FIG. 2A and Table 1.

human fibroblast cell = assay: Human Fibroblast Cell Assay: CPD ELISA of DNA damage after UVB; format: cell-based; conditions: UVB 35 mJ/cm^2, 12 hours
Method: Lastly, tests were conducted on human skin cells. The testing was performed using neonatal foreskin […], a type of skin cell that is a common model for skin testing across the cosmetic industry. The skin cells were purchased from Thermo Fisher Scientific Co. (NY) and grown in Dulbecco Modified Eagle Medium (DMEM) supplemented with 10% Fetal Bovine Serum (Thermo Fisher Scientific). Cultures were maintained at 37° C. within an air atmosphere of 5% carbon dioxide and about 95% humidity.
The skin cells were seeded in 12-well plates and incubated for 24 hours. After incubation, the cells were washed in […] (PBS) and irradiated with UVB at a dosage of 35 mJ/cm^2 using a Viber Lourmat BIO-Sun System (Marne-la-Vallee, France). The test compounds and control materials were added to the medium immediately following UVB irradiation; the treated mediums were allowed to continue for 12 hours at 37° C. under the air atmosphere with 5% carbon dioxide at about 95% humidity. In parallel, each test compound was added to non-irradiated cells as baseline controls. Untreated cells were used as negative controls. All treatments were performed in triplicate. Dosage levels for samples were 12.5 microMolar except lapachol dosed at 3 microMolar. Following incubation, the cells were washed with PBS, collected and stored at −80° C.
DNA was extracted from the collected cells using a QIAamp Blood Kit (QIAGEN, Calif., USA) in accordance with the manufacturer's protocol. The amounts of cyclobutane pyrimidine dimers (CPDs) in the various samples were determined by the CPD ELISA protocol. In accordance with this protocol, an OXISELECT® UV-Induced DNA Damage ELISA Kit (Cell Biolabs Inc., CA, USA) was employed for the testing done in accordance with the manufacturer's instructions. Amounts of CPD in UVB-treated samples were determined in percentage relative to the value of untreated fibroblasts. The greater the measured % CPD, the greater the DNA damage. Thus, in the Table below, the smaller the “Avg (% Untreated)” value, the better is the UVB damage induced inhibitory effect.
Mean standard deviation comparisons between data groups employed the GraphPad Prism 6.05 software (GraphPad Software, CA, USA). Statistical analysis was performed using ANOVA with Holm-Sidak's test or unpaired t-test with Welch's correction.

[5] = tested on: primary human fibroblasts; assay: cytotoxicity assay (Cell Titer96 Aqueous One) on fibroblasts; conditions: 24 h
Method: Normal human dermal adult fibroblasts derived from a donor of were purchased from CELLnTec (Bern, Switzerland) and grown in DMEM supplemented with 10% FBS (Life Technologies, CA, USA). Fibroblasts cultures were maintained at 37° C. with 5% CO2 and ˜95% humidity.
as §3
The cytotoxicity assay on primary human fibroblasts from adult donor was performed after 24 h of culture in the presence of different concentrations of each compound, as indicated in FIG. 2B and Table 2.

Sequence of CUL4A (Homo sapiens, UniProt Q13619) (Q13619 whole entry, species assumed): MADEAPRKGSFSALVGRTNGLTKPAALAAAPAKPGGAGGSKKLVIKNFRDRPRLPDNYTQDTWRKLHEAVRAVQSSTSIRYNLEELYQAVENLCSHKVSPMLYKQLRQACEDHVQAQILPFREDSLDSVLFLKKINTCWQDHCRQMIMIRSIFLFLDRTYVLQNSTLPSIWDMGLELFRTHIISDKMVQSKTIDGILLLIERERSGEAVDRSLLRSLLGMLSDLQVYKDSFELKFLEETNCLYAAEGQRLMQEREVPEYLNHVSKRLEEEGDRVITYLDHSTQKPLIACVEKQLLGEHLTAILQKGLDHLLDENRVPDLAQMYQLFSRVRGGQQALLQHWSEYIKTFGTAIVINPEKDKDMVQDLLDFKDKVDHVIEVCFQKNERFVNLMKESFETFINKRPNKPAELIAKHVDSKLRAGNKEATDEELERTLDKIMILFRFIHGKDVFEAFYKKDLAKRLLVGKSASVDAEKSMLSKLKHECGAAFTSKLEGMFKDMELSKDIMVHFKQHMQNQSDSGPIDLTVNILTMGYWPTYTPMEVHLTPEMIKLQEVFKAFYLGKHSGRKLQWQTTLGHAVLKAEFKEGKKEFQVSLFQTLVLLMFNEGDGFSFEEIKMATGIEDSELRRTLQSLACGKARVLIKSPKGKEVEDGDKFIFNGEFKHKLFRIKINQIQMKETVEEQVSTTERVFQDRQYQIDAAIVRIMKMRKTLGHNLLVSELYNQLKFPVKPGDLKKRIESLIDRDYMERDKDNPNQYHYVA
T1 sequence (Q3TCH7 whole entry): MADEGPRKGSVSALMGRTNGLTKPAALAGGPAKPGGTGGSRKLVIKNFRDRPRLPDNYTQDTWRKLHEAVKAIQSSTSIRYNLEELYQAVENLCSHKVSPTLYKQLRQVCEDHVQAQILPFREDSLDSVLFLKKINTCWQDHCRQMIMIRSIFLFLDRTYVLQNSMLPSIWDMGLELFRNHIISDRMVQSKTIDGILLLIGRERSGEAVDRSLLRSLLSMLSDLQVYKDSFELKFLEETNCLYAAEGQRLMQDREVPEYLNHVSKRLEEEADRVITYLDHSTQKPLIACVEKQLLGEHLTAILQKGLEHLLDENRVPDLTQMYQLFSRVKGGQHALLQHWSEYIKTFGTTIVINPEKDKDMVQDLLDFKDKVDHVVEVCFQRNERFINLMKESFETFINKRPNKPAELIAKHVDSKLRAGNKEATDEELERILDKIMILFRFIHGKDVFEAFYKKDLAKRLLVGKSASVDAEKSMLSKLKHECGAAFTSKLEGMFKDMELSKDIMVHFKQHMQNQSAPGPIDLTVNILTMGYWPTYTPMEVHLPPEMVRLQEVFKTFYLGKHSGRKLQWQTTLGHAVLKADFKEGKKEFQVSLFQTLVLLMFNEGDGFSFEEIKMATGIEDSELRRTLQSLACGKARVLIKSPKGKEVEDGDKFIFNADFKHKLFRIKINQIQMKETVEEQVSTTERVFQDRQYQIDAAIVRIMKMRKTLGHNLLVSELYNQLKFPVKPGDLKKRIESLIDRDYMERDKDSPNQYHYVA

SMILES: CC(C)=CCC1=C(O)C(=O)c2ccccc2C1=O [Lapachol, 2-hydroxy-3-(3-methylbut-2-enyl)naphthalene-1,4-dione]
% Inhibitory Activity (CUL4A [1]): 34.4% | number of genes downregulated (human fibroblasts; 31 μM, 24 h, of 24905 genes): 30 genes | number of genes upregulated (human fibroblasts; 31 μM, 24 h, of 24905 genes): 104 genes | expression of RGCC and PTGS2 (regulation of fibroblast growth factor production) (human fibroblasts; at either concentration): upregulated | number of genes involved in regulation of endothelial cell migration upregulated (human fibroblasts; out of 70 genes): 3 genes | gene expression in Metabolism of Xenobiotics by Cytochrome P450 and Steroid Hormone Biosynthesis Pathways [2]: induced differential gene expression | number of genes downregulated ([2]; 31 μM, of 24905 assessed genes): 556 genes | number of genes upregulated ([2]; 31 μM, of 24905 assessed genes): 250 genes | number of genes downregulated ([2]; 62 μM): 461 genes | number of genes upregulated ([2]; 62 μM): 258 genes | expression of phase-I detoxification and steroid hormone biosynthesis genes ([2]; CYP1A1, CYP1B1, CYP2BG, GSTM3, AKR1C1, AKR1C2, AKR1C3, AKR1B15): upregulated | expression of genes important for normal differentiation and function of skin ([2]; FGF2, CSF1, SLCO2A1, SERPINB1): upregulated | expression of genes associated with inflammation ([2]; IL6, IL1R2, IL2RG, IL1RL1): upregulated | expression of Cell Cycle Pathway genes ([2]; MAD2L1, CDC20, CCNE2, CCNA2, CCNB2, CCNB1, BUB1, PLK1, CDC25C, BUB1B, TTK, ORC1, MCM6): downregulated | DDB2 remaining after UV (% of baseline) (CUL4A [3]): 80% | Avg (% of untreated) ([4]; 15.5 μM): 86% | Avg (% of untreated) ([4]; 31.1 μM): 86% | Avg (% of untreated) ([4]; 62.25 μM): 84% | concentrations that showed no cytotoxicity ([4]; cytotoxic = inhibition of viability of more than 20%): up to 62.25 μM | Avg (% Untreated) (human fibroblast cell; 3 microMolar): 2076% | Avg (% of untreated) ([5]; 15.5 μM): 99% | Avg (% of untreated) ([5]; 31.1 μM): 98% | Avg (% of untreated) ([5]; 62.25 μM): 100% | concentrations that showed no cytotoxicity ([5]; unit not given): up to 62.25

% Inhibitory Activity (CUL4A [1]): 70.4% | DDB2 remaining after UV (% of baseline) (CUL4A [3]): 85%
SMILES: CC1=CC(=O)C(C(C)C)=CC1=O [Thymoquinone, 2-isopropyl-5-methylbenzo-1,4-quinone]
Avg (% Untreated) (human fibroblast cell; 12.5 microMolar): 2554%

% Inhibitory Activity (CUL4A [1]): 48.9% | DDB2 remaining after UV (% of baseline) (CUL4A [3]): 115%
SMILES: CC(C)C(=O)c1c(O)c(C(C2=C(O)C(C)(C)C(=O)C(C)(C)C2=O)C(C)C)c(O)c2c1OC1=C(C(=O)C(C)(C)C(=O)C1(C)C)C2C(C)C (centres unmarked) [Myrtucommulone C, myrtucommulone C]
Avg (% Untreated) (human fibroblast cell; 12.5 microMolar): 1362%

expression of IL6 and IL1RL1 receptor [2]: upregulated | gene expression in Metabolism of Xenobiotics by Cytochrome P450 and Steroid Hormone Biosynthesis Pathways [2]: no major effect
SMILES: NC(=O)c1cccnc1 [Niacinamide, reference compound]
Mineral Absorption Pathway (human fibroblasts): affected | vascular wound healing, spreading of epidermal cells and vasculature development (gene profile) (human fibroblasts): no effect | expression of ASS1 and PTGS2 [2]: affected | expression of DNAJB9 [2]: downregulated | expression of IL1RG and IL1RL1 receptors [2]: no effect | expression of TYMS [2]: downregulated | expression of VEGFA [2]: no effect | expression of cell cycle genes ([2]; CDK1, PLK1, RB1, CDC25C, CDC25B, MAD2L1, CDKN2B, CCNA2, MAD1L1, TTK, ZBTB17, RBL1, CCNB1, CCNB2, BUB1, CDC20, PTTG1, BUB1B): downregulated only some of the genes | expression of Golgi apparatus genes with the exception of MGAT4A ([2]; COG6, ARFGAP3, IFT20): not affected | expression of FGF2 ([2]; compared with RGN1518): upregulated FGF2 to lesser extend | Avg (% of untreated) ([4]; 3.1 mM): 105% | Avg (% of untreated) ([4]; 6.2 mM): 106% | Avg (% of untreated) ([4]; 12.5 mM): 104% | Avg (% of untreated) ([4]; 25 mM): 108% | Avg (% of untreated) ([4]; 50 mM): 95% | Avg (% of untreated) ([4]; 100 mM): 58% | Avg (% of untreated) ([4]; 200 mM): 46% | concentrations that showed no cytotoxicity [4]: up to 50 mM | Avg (% Untreated) (human fibroblast cell; 12.5 microMolar): 2216% | Avg (% of untreated) ([5]; 3.1 mM): 100% | Avg (% of untreated) ([5]; 6.2 mM): 99% | Avg (% of untreated) ([5]; 12.5 mM): 97% | Avg (% of untreated) ([5]; 25 mM): 100% | Avg (% of untreated) ([5]; 50 mM): 91% | Avg (% of untreated) ([5]; 100 mM): 89% | Avg (% of untreated) ([5]; 200 mM): 61% | concentrations that showed no cytotoxicity [5]: up to 100 mM
